Test results as given in patent publication US20240027435A1, “METHOD AND KIT FOR LABELING EUKARYOTIC CELLS FROM A MULTICELLULAR ORGANISM USING MODIFIED MONOSACCHARIDE COMPOUNDS AND PHARMACEUTICAL COMPOSITION COMPRISING SUCH CELLS” (THERAONCO, priority 2020, published 2024).

Legend:
Format in all cases: cell-based, Human
[1] = system: THP1; test: Labelling of cells with azido-monosaccharide probe, fluorescence cancer/non cancer ratio: THP1 vs Monocytes/Macrophages; settings: fluorescence signal ratio; THP1 (Blood, monocytic acute leukemia) vs Monocytes/Macrophages; incubation one doubling time (26 h)
Procedure: (§1) The cell lines were grown in suitable medium, supplemented by 10% fetal bovine serum (FBS) (VWR international S.A.S). The culture medium was changed every two days. The passaging of cells was performed using Tryp-LE express 1× (Gibco). The cell viability was estimated using trypan blue exclusion tests.
(§2) Cells were seeded in 24-well plates, at a density of 5×10^4 cells/well. Then, cells were incubated at 37° C., 5% CO2, during 24 hours. The culture media were adapted to the tested cells and supplemented by 10% fetal bovine serum (FBS). The incubation time corresponded to one doubling time of the tested cells. The fluorescence signal cancer/non cancer ratios were calculated based on fluorescence intensities obtained with Xylose-N3 or Ribose-N3 tested on cancer and corresponding non cancer cells.
(§3) The fluorescence assimilation of Xylose-N3 or Ribose-N3 probes was visualized by copper-free click chemistry using sulfo-DBCO-biotin (1 mM), followed by labeling with a mouse anti-biotin Alexa Fluor 488 antibody conjugate (0.62 mg/ml stock, Jackson ImmunoResearch, dilution 1/10). […]
(§4) The fluorescence acquisition was recorded using Olympus Microscopy IX83 (Olympus Life Science) equipped with a 60×/1.3 […]/1.4 SRI (silicone refractive index) objective, and Hamamatsu oreca flash 4 LT camera with 109 nm/pixel calibrated pixel size. […]

[2] = system: BL-2; test: Labelling of cells, fluorescence cancer/non cancer ratio: BL-2 vs Isolated primary B cells; settings: fluorescence signal ratio; BL-2 (Blood, non-endemic Burkitt lymphoma, 24 h) vs Isolated primary B cells
Procedure: as §1, §2, §3, §4

[3] = system: A431; test: Labelling of cells, fluorescence cancer/non cancer ratio: A431 vs Hacat; settings: fluorescence signal ratio; A431 (Skin, Epidermoid carcinoma) vs Hacat; one doubling time (30 h)
Procedure: as §1, §2, §3, §4

[4] = system: MDA MB175; test: Labelling of cells, fluorescence cancer/non cancer ratio: MDA MB175 vs HME-1; settings: fluorescence signal ratio; MDA MB175 (Breast cancer) vs HME-1; one doubling time (30 h)
Procedure: as §1, §2, §3, §4

[5] = system: PANC; test: Labelling of cells, fluorescence cancer/non cancer ratio: PANC vs HPNE; settings: fluorescence signal ratio; PANC (Pancreas, Pancreatic carcinoma) vs HPNE; one doubling time (32 h)
Procedure: as §1, §2, §3, §4

[6] = system: KCL22; test: Labelling of cells, fluorescence cancer/non cancer ratio: KCL22 vs Lymphocytes; settings: fluorescence signal ratio; KCL22 (Blood, chronic myelogenous leukemia) vs Lymphocytes; one doubling time (24 h)
Procedure: as §1, §2, §3, §4

[7] = system: HT29; test: Labelling of cells, fluorescence cancer/non cancer ratio: HT29 vs Colon epithelial cell; settings: fluorescence signal ratio; HT29 (colon, Colorectal adenocarcinoma) vs Colon epithelial cell; one doubling time (40 h)
Procedure: as §1, §2, §3, §4

[8] = system: A549; test: Labelling of cells, fluorescence cancer/non cancer ratio: A549 vs Bronchial epithelial cell; settings: fluorescence signal ratio; A549 (Lung, Carcinoma) vs Bronchial epithelial cell; one doubling time (40 h)
Procedure: as §1, §2, §3, §4

[9] = system: K562; test: Labelling of cells, fluorescence cancer/non cancer ratio: K562 vs Lymphocytes T; settings: fluorescence signal ratio; K562 (Blood, Chronic Myeloid Leukemia) vs Lymphocytes T; one doubling time (24 h)
Procedure: as §1, §2, §3, §4

[10] = system: Kasumi-1; test: Labelling of cells, fluorescence cancer/non cancer ratio: Kasumi-1 vs B12-F8; settings: fluorescence signal ratio; Kasumi-1 (Blood, Acute Myeloid Leukemia, 48 h) vs B12-F8 (24 h); one doubling time
Procedure: as §1, §2, §3, §4

[11] = system: DOHH-2; test: Labelling of cells, fluorescence cancer/non cancer ratio: DOHH-2 vs Isolated primary B cells; settings: fluorescence signal ratio; DOHH-2 (Blood, Diffuse large B-cell lymphoma germinal center B-cell type, 40-48 h) vs Isolated primary B cells
Procedure: as §1, §2, §3, §4

[12] = system: MDA-MB-231; test: Labelling of cells, fluorescence cancer/non cancer ratio: MDA-MB-231 vs Breast epithelial cell; settings: fluorescence signal ratio; MDA-MB-231 (Breast adenocarcinoma) vs Breast epithelial cell; one doubling time (40 h)
Procedure: as §1, §2, §3, §4

[13] = system: OCI-Ly3; test: Labelling of cells, fluorescence cancer/non cancer ratio: OCI-Ly3 vs Isolated primary B cells; settings: fluorescence signal ratio; OCI-Ly3 (Blood, Diffuse large B-cell lymphoma, 24 h) vs Isolated primary B cells
Procedure: as §1, §2, §3, §4

[14] = system: AGS; test: Labelling of cells, fluorescence cancer/non cancer ratio: AGS vs Stomach epitelial cell; settings: fluorescence signal ratio; AGS (Stomach, Gastric adenocarcinoma) vs Stomach epitelial cell; one doubling time (30 h)
Procedure: as §1, §2, §3, §4

[N-]=[N+]=NC[C@@H](O)[C@H](O)[C@@H](O)C=O [Xylose-N3, 5-azido-5-deoxy-xylose]
Cancer/Non Cancer Ratio [1]: 25 | Cancer/Non Cancer Ratio [2]: 2 | Cancer/Non Cancer Ratio [3]: 12 | Cancer/Non Cancer Ratio [4]: 3 | Cancer/Non Cancer Ratio [5]: 3 | Cancer/Non Cancer Ratio [6]: 7 | Cancer/Non Cancer Ratio [7]: 8 | Cancer/Non Cancer Ratio [8]: 10 | Cancer/Non Cancer Ratio [9]: 5 | Cancer/Non Cancer Ratio [10]: 2 | Cancer/Non Cancer Ratio [11]: 12 | Cancer/Non Cancer Ratio [12]: 4 | Cancer/Non Cancer Ratio [13]: 9 | Cancer/Non Cancer Ratio [14]: 2
